For test [1], the target named is T1, GDP-bound KRAS protein (aa 1-169), containing both G12C and C118A amino acid substitutions (Homo sapiens, UniProt P01116, C118A/G12C). As to the kind of experiment: Coupled Nucleotide Exchange Assay (Table 15 conditions: 2 hours pre-incubation). Type of test: biochemical. The conditions noted are these: 2 hours compound pre-incubation (Table 15 conditions). As for the experimental part: (§1) For compounds in Table 15, the following assay conditions were employed:
Following compound pre-incubation, purified SOS protein (aa 564-1049) and GTP (Roche 10106399001) were added to the assay wells and incubated for an additional hour. […] The assay plates were then read on a PerkinElmer EnVision Multilabel Reader, using AlphaScreen® technology, and data were analyzed using a 4-parameter logistic model to calculate IC50 values.

In test [2] the test system is Phosphorylation of ERK1/2 in A549 cells. As to the kind of experiment: Phospho-ERK1/2 MSD Assay, A549 (Table 15 conditions: 4 hours compound treatment). Type of test: cell-based. The conditions noted are these: Homo sapiens, A549, 4 h, EGF stimulation, read-out: p-ERK IC50 (A549). As for the experimental part:
as §1
(§2) Phospho-ERK1/2 MSD Assay: MIA PaCa-2 (ATCC® CRL-1420™) and A549 (ATCC® CCL-185™) cells were cultured in RPMI 1640 Medium (ThermoFisher Scientific 11875093) containing 10% fetal bovine serum (ThermoFisher Scientific 16000044) and 1× penicillin-streptomycin-glutamine (ThermoFisher Scientific 10378016). Sixteen hours prior to compound treatment, MIA PaCa-2 or A549 cells were seeded in 96-well cell culture plates at a density of 25,000 cells/well and incubated at 37° C., 5% CO2. A compound dose-response titration was diluted in growth media, added to appropriate wells of a cell culture plate, and then incubated at 37° C., 5% CO2 for 4 hours. Following compound treatment, cells were stimulated with 10 ng/mL EGF (Roche 11376454001) for 10 min, washed with ice-cold Dulbecco's phosphate-buffered saline, no Ca^2+ or Mg^2+ (ThermoFisher Scientific 14190144), and then lysed in RIP A buffer (50 mM Tris-HCl pH 7.5, 1% Igepal, 0.5% sodium deoxycholate, 150 mM NaCl, and 0.5% sodium dodecyl sulfate) containing protease inhibitors (Roche 4693132001) and phosphatase inhibitors (Roche 4906837001). Cell lysates were stored frozen at −80° C. overnight. Phosphorylation of ERK1/2 in compound-treated lysates was assayed using Phospho-ERK1/2 Whole Cell Lysate kits (Meso Scale Discovery K151DWD) according to the manufacturer's protocol. Assay plates were read on a Meso Scale Discovery Sector Imager 6000, and data were analyzed using a 4-parameter logistic model to calculate IC50 values.

The subject of test [3] is Phosphorylation of ERK1/2 in MIA PaCa-2 cells. As to the kind of experiment: Phospho-ERK1/2 MSD Assay, MIA PaCa-2 (Table 15 conditions: 4 hours compound treatment). Type of test: cell-based. The conditions noted are these: EGF stimulation, read-out: p-ERK IC50 (MIA PaCa-2). As for the experimental part: as §1, §2
Test [4] shares this test system. As to the kind of experiment: Phospho-ERK1/2 MSD Assay, MIA PaCa-2 (Table 16 conditions: 2 hours compound treatment). Type of test: cell-based. The conditions noted are these: MIA PaCa-2 cells, 10 ng/mL EGF for 10 min, read-out: p-ERK IC50 (MIA PaCa-2). As for the experimental part:
(§3) For compounds in Table 16, the following assay conditions were employed:
Sixteen hours prior to compound treatment, MIA PaCa-2 or A549 cells were seeded in 96-well cell culture plates at a density of 25,000 cells/well and incubated at 37° C., 5% CO2. A compound dose-response titration was diluted in growth media, added to appropriate wells of a cell culture plate, and then incubated at 37° C., 5% CO2 for 2 hours. […] Phosphorylation of ERK1/2 in compound-treated lysates was assayed using Phospho-ERK1/2 Whole Cell Lysate kits (Meso Scale Discovery K151DWD) according to the manufacturer's protocol. Assay plates were read on a Meso Scale Discovery Sector Imager 6000, and data were analyzed using a 4-parameter logistic model to calculate IC50 values.

Test [5] concerns the target T1, GDP-bound KRAS protein (aa 1-169), containing both G12C and C118A amino acid substitutions. As to the kind of experiment: Coupled Nucleotide Exchange Assay (Table 16 conditions: 5 min pre-incubation). Type of test: biochemical. The conditions noted are these: 5 min compound pre-incubation; SOS-mediated nucleotide exchange, AlphaScreen. As for the experimental part:
as §3
The assay plates were then read on a PerkinElmer EnVision Multilabel Reader, using AlphaScreen® technology, and data were analyzed using a 4-parameter logistic model to calculate IC50 values.
(In general: In Alpha technology, singlet oxygen from a donor bead excites a nearby acceptor bead.)

Bounds are passed on as bounds.

In general, IC50 refers to the concentration that inhibits the measured activity by half.

T1 sequence (P01116 1-169 isoform P01116-2 G12C/C118A): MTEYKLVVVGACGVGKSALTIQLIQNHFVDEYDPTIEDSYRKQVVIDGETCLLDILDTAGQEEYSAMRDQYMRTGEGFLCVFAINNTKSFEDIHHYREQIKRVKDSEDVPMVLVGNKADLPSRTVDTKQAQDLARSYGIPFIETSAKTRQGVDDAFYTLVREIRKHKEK

Take `C=CC(=O)N1CCN(c2snc3c(F)c(-c4cc(O)cc5ccccc45)c(Cl)cc23)CC1CO` (racemic) [Example 1-16, 1-(4-(5-chloro-7-fluoro-6-(3-hydroxy-1-naphthalenyl)-2,1-benzothiazol-3-yl)-2-(hydroxymethyl)-1-piperazinyl)-2-propen-1-one]: in test [1], the “Coupled exchange IC50” value amounted to 492 nM. Besides, the concentration for half-maximal inhibition (IC50) in test [2] is above 100000 nM. In the case of `C=CC(=O)N1CCN(c2snc3c(F)c(-c4cc(O)cc5ccccc45)c(Cl)cc23)[C@@H](C)C1` [Example 1-19-1, 1-((3S)-4-(5-chloro-7-fluoro-6-(3-hydroxy-1-naphthalenyl)-2,1-benzothiazol-3-yl)-3-methyl-1-piperazinyl)-2-propen-1-one], the “Coupled exchange IC50” value in test [1] was 115 nM.

In the case of `C=CC(=O)N1CCN(c2nnc(-c3c(C)ccc4[nH]ncc34)c3cc(-c4c(O)cccc4F)c(Cl)cc23)CC1` [Example 10-12, 1-(4-(7-chloro-6-(2-fluoro-6-hydroxyphenyl)-4-(5-methyl-1H-indazol-4-yl)-1-phthalazinyl)-1-piperazinyl)-2-propen-1-one], the IC50 in test [3] (Homo sapiens, MIA PaCa-2, 4 h) came out at 22600 nM.

On to `C=CC(=O)N1CCN(c2nc(=O)n(-c3ccccc3C(C)C)c3cc(-c4c(O)cccc4F)c(Cl)cc23)[C@@H](C)C1` (single isomer, unassigned) [Example 8-3-2], for which the “Coupled exchange IC50” value in test [1] is 340 nM.

For the compound `C=CC(=O)N1CCN(c2nc(=O)n(-c3ccccc3C(C)C)c3cc(-c4c(O)cccc4F)c(Cl)cc23)[C@@H](C)C1` [Example 8-3-1, 6-chloro-7-(2-fluoro-6-hydroxy-phenyl)-4-((2S)-2-methyl-4-(2-propenoyl)-1-piperazinyl)-1-(2-(2-propanyl)-phenyl)-2(1H)-quinazolinone], in test [1], the “Coupled exchange IC50” value turned out to be 282 nM. For the compound `C=CC(=O)N1CCN(c2nnc(-c3ccccc3C(C)C)c3cc(-c4c(O)cccc4F)c(C)nc23)CC1` [Example 27, 1-(4-(3-(2-Fluoro-6-hydroxyphenyl)-2-methyl-5-(2-(2-propanyl)phenyl)pyrido[2,3-d]pyridazin-8-yl)-1-piperazinyl)-2-propen-1-one], the “Coupled exchange IC50” value in test [1] stood at 1280 nM.

Consider `C=CC(=O)N1CCN(c2snc3c(F)c(-c4cc(O)cc5ccccc45)c(Cl)cc23)C(C(C)C)C1` (racemic) [Example 2-10, 1-(4-(5-chloro-7-fluoro-6-(3-hydroxy-1-naphthalenyl)-2,1-benzothiazol-3-yl)-3-(2-propanyl)-1-piperazinyl)-2-propen-1-one], for which the “Coupled exchange IC50” value in test [1] was 1730 nM. Besides, the IC50 in test [3] (Homo sapiens, MIA PaCa-2, 4 h) is 3070 nM; in test [2] it was above 100000 nM. For `C=C(CBr)C(=O)N1CCN(c2snc3c(F)c(-c4cc(O)cc5ccccc45)c(Cl)cc23)CC1` (single isomer, unassigned) [Example 18-2, 2-(bromomethyl)-1-(4-(5-chloro-7-fluoro-6-(3-hydroxy-1-naphthalenyl)-2,1-benzothiazol-3-yl)-1-piperazinyl)-2-propen-1-one], the “Coupled exchange IC50” value in test [1] turned out to be 760 nM. Still for that read-out and setting: in the case of `C=CC(=O)N1CCN(c2nc(=O)n(-c3ccccc3C(C)C)c3cc(-c4c(O)cccc4F)c(Cl)cc23)[C@@H](C)C1` [Example 8-3, 6-chloro-7-(2-fluoro-6-hydroxyphenyl)-4-((2S)-2-methyl-4-(2-propenoyl)-1-piperazinyl)-1-(2-(2-propanyl)phenyl)-2(1H)-quinazolinone] it was 283 nM. In the case of `C=CC(=O)N1CCN(c2nc(=O)n(-c3ccncc3C3CC3)c3cc(-c4c(O)cccc4F)c(Cl)cc23)[C@@H](C)C1` (single isomer, unassigned) [Example 9-7-2], the IC50 in test [3] is 232 nM. As to `C=C(CO)C(=O)N1CCN(c2snc3c(F)c(-c4cc(O)cc5ccccc45)c(Cl)cc23)CC1` (single isomer, unassigned) [Example 18-3, 1-(4-(5-chloro-7-fluoro-6-(3-hydroxy-1-naphthalenyl)-2,1-benzothiazol-3-yl)-1-piperazinyl)-2-(hydroxymethyl)-2-propen-1-one], the “Coupled exchange IC50” value in test [1] amounted to 24600 nM. For the compound `C=CC(=O)N1CCN(c2snc3c(F)c(-c4c(C)ccc5[nH]ncc45)c(Cl)cc23)C(C(F)F)C1` (racemic) [Example 2-8, 1-(4-(5-chloro-7-fluoro-6-(5-methyl-1H-indazol-4-yl)-2,1-benzothiazol-3-yl)-3-(difluoromethyl)-1-piperazinyl)-2-propen-1-one], the “Coupled exchange IC50” value in test [1] came out at 361 nM. Also, the half-inhibitory concentration (IC50) in test [2] was above 100000 nM. For `C=CC(=O)N1CCN(c2snc3c(F)c(-c4cc(O)cc5ccccc45)c(Cl)cc23)C(CF)C1` (racemic) [Example 7-2, 1-(4-(5-chloro-7-fluoro-6-(3-hydroxy-1-naphthalenyl)-2,1-benzothiazol-3-yl)-3-(fluoromethyl)-1-piperazinyl)-2-propen-1-one], the “Coupled exchange IC50” value in test [1] was 180 nM. Also, in test [2], the IC50 was above 100000 nM. With `C=CC(=O)N1CCN(c2nc(=O)n(-c3c(C)ccnc3C(C)C)c3nc(-c4ccccc4F)c(Cl)cc23)[C@@H](C)C1` [Example 40-2, 6-chloro-7-(2-fluoro-phenyl)-1-(4-methyl-2-(2-propanyl)-3-pyridinyl)-4-((2S)-2-methyl-4-(2-propenoyl)-1-piperazinyl)pyrido-[2,3-d]pyrimidin-2(1H)-one], the IC50 in test [4] came to 321 nM; in test [5] it was 597 nM. As to `C=CC(=O)N1CCN(c2nc(=O)n(-c3c(C)ccnc3C3CC3)c3nc(-c4ccccc4F)c(Cl)cc23)[C@@H](C)C1` [Example 45, 6-Chloro-1-(2-cyclopropyl-4-methyl-3-pyridinyl)-7-(2-fluorophenyl)-4-((2A)-2-methyl-4-(2-propenoyl)-1-piperazinyl)pyrido[2,3-d]pyrimidin-2(1H)-one], the IC50 in test [4] came to 62 nM; in test [5], 319 nM. Turning to `C=CC(=O)N1CCN(c2nc(=O)n(-c3c(C)ccnc3C3CC3)c3nc(-c4c(O)cccc4F)c(F)cc23)[C@@H](C)C1` [Example 42, 1-(2-Cyclopropyl-4-methyl-3-pyridinyl)-6-fluoro-7-(2-fluoro-6-hydroxyphenyl)-4-((2S)-2-methyl-4-(2-propenoyl)-1-piperazinyl)pyrido[2,3-d]pyrimidin-2(1H)-one], the figures for the half-inhibitory concentration (IC50) in test [4] and in test [5] were 362 nM and 335 nM, respectively. With `C=CC(=O)N1CCN(c2nc(=O)n(-c3c(C)cnn3C(C)C)c3nc(-c4ccccc4F)c(Cl)cc23)[C@@H](C)C1` [Example 53, 6-Chloro-7-(2-fluorophenyl)-1-(4-methyl-1-(2-propanyl)-1H-pyrazol-5-yl)-4-((2S)-2-methyl-4-(2-propenoyl)-1-piperazinyl)pyrido[2,3-d]pyrimidin-2(1H)-one], the IC50 in test [4] was found to be 71 nM; in test [5], 125 nM. Regarding `C=CC(=O)N1CCN(c2snc3nc(-c4cc(OC)cc5ccccc45)c(Cl)cc23)C(C)C1` (racemic) [Example 2-4, 1-(4-(5-chloro-6-(3-methoxy-1-naphthalenyl)[1,2]thiazolo[3,4-b]pyridin-3-yl)-3-methyl-1-piperazinyl)-2-propen-1-one], the “Coupled exchange IC50” value in test [1] is above 250000 nM.
